Source: patent US8987315B2, “Metalloenzyme inhibitor compounds” (Innocrin Pharmaceuticals, Inc., priority 2009, dated 2015)

Legend:
CYP17 = CYP17 (Rattus norvegicus (Rat), UniProt P11715); test: Inhibition of CYP17 (rat testicular microsomes); assay type: biochemical; conditions: pooled rat testicular microsomes
CYP2C9 = CYP2C9 (Homo sapiens (Human), UniProt P11712); test: Inhibition of liver cytochrome P450 enzymes (human liver microsomes), CYP2C9
CYP3A4 = CYP3A4 (Homo sapiens (Human), UniProt P08684); test: Inhibition of liver cytochrome P450 enzymes (human liver microsomes), CYP3A4
CYP2C19 = CYP2C19 (Homo sapiens (Human), UniProt P33261); test: Inhibition of liver cytochrome P450 enzymes (human liver microsomes), CYP2C19
CYP2C19, sequence (P33261 whole entry): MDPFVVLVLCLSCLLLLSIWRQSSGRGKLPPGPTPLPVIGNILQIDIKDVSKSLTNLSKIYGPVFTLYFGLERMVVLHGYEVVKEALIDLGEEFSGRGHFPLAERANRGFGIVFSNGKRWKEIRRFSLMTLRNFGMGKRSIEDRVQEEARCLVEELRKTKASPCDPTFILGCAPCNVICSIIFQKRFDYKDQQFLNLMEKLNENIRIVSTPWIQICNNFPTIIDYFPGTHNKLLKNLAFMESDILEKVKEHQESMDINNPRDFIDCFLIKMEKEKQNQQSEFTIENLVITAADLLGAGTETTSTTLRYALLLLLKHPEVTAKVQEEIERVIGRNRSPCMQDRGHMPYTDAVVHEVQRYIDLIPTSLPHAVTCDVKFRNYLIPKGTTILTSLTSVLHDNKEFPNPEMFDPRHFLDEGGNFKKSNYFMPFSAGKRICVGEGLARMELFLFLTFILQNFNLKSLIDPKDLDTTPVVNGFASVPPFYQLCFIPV

CYP2C9, sequence (P11712 whole entry): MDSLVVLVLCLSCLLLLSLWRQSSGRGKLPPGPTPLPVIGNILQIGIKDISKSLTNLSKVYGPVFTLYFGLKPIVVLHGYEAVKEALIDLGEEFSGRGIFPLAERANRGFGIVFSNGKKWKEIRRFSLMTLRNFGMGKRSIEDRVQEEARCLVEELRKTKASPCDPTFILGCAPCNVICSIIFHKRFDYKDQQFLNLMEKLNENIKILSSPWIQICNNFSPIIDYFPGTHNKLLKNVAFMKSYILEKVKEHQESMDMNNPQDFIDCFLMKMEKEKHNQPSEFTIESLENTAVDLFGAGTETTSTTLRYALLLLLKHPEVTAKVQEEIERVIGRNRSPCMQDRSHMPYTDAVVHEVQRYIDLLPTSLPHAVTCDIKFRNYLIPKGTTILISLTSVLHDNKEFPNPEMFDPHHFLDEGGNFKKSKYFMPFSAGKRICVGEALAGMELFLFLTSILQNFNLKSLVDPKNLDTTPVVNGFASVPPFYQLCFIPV
CYP17, sequence (P11715 whole entry): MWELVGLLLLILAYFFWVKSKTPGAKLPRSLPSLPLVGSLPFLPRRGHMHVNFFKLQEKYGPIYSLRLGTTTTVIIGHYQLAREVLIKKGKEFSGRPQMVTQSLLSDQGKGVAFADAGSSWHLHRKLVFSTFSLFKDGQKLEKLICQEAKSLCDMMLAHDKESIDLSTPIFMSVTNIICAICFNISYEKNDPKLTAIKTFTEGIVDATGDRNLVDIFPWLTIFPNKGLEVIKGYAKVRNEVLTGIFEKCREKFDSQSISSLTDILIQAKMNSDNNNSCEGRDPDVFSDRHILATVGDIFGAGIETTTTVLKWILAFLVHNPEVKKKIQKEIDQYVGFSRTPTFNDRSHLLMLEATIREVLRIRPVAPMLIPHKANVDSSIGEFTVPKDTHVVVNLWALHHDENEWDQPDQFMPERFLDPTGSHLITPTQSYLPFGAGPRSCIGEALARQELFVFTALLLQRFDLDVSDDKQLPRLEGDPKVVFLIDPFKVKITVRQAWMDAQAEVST
CYP3A4, sequence (P08684 whole entry): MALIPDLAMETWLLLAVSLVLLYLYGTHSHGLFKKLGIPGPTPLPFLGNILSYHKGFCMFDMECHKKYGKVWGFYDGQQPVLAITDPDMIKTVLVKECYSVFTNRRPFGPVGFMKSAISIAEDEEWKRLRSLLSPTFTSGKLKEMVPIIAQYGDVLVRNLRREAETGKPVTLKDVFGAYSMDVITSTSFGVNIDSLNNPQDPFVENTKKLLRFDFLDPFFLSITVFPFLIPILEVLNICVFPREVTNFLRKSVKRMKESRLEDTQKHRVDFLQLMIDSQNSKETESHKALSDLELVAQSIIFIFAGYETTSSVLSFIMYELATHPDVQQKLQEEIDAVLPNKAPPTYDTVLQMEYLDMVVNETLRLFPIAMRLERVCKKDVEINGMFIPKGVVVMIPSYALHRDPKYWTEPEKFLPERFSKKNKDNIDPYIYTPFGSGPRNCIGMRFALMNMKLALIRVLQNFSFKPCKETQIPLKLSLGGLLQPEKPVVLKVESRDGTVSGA

With CC(C)C(c1ccc2cc(OC(F)F)c(OC(F)F)cc2c1)n1ncnn1 (centres unmarked) [Example 1, 2-(1-(6,7-bis(difluoromethoxy)naphthalen-2-yl)-2-methylpropyl)-2H-tetrazole] the IC50 (CYP17) was 0.4 µM, the IC50 (CYP2C9) was 7 µM and the IC50 (CYP3A4) was over 200 µM. The IC50 (CYP2C19) was 37 µM.

CC(C)C(c1ccc2cc(OCC(F)(F)F)ccc2c1)n1ncnn1 (centres unmarked) [Example 2, 2-(2-Methyl-1-(6-(2,2,2-trifluoroethoxy)naphthalen-2-yl)propyl)-2H-tetrazole] showed an IC50 (CYP17) of 0.46 µM, an IC50 (CYP2C9) of 27 µM and an IC50 (CYP2C19) of 45 µM.

COc1cc2ccc(C(C(C)C)n3ncnn3)cc2cc1OC (centres unmarked) [Example 3, 2-(1-(6,7-Dimethoxynaphthalen-2-yl)-2-methylpropyl)-2H-tetrazole] was tested, and the IC50 (CYP17) was 0.27 µM, the IC50 (CYP2C9) was 4.8 µM and the IC50 (CYP3A4) was over 200 µM. For the same compound, the IC50 (CYP2C19) was 30 µM.

CC(C)C(c1ccc2cc(OC(F)F)ccc2c1)n1ncnn1 (centres unmarked) [Example 4, 2-(1-(6-(difluoromethoxy)naphthalen-2-yl)-2-methylpropyl)-2H-tetrazole] showed an IC50 (CYP17) of 0.21 µM, an IC50 (CYP2C9) of 15 µM and an IC50 (CYP2C19) of 35 µM.
